In data set [1] the test system is style-specific S RNase of Fuji apple. In words: Inhibition of the activity of a style-specific S RNase by the agents. It counts as biochemical. The conditions noted are these: optical density at 260 nm (A260), agent 2.0 mM, no treatment 1.10. The protocol: Inhibition of S RNase activity by an agent of the present invention was measured as follows: The standard solution of 500 μL of 10 mM sodium phosphate (pH 7.0) with an agent (2.0 mM), and 500 μL of torula yeast rRNA (5 mg/mL) was pre-incubated for 10 min at 37° C. To the substrate solution, the 20 μL of the style-specific S RNase (200 ng) of Fuji apple was added, then the solution was incubated for 30 min at 37° C. A fraction of 200 μL was collected and 40 μL of stop buffer (ice-cold 25% HCIO4, 0.75% uranyl acetate) was added, then mixed and centrifuged at 12,000 rpm for 5 min. And 50 μL of the supernatant was diluted with 950 μL of dd H2O, then the solution was centrifuged and measured the optical density at 260 nm (A260) (Singh A. et al., Plant Physilolgy, 96: 61-68,1991).

Another data set deals with Lycopersicon peruvianum. In words: Breakdown of the self-incompatibility in Lycopersicon peruvianum (fruition rate, greenhouse). It counts as in vivo. The protocol:
To verify the inhibition of a style-specific S RNase and the suppression of SI system with an agent of the present invention in a practical cultivating Environment, a wild-type tomato (Lycopersicon peruvianum) which has a gametophytic SI system was cultivated in a greenhouse at genetically insulated environment and was treated with an S RNase inhibitor of the present invention.
To determine the treatment period of an S RNase inhibitor, the inhibitor was applied to flowers either at the early blooming period (budding formation period to full blooming), or the middle blooming period (full blooming), or the late blooming period (1 day after full blooming period of petal), respectively. Each inhibitors in 0.1 mM aqueous solution (except the ZnSO4 (1 mM) and CuSO4 (1.0 mM) solution) was treated enough to get-wet flowers ith a micro-spray at 9:00-11:00 AM when the pollination of plant occurs most actively. The experiment with 25 blooming flowers (organ containing a stamen, a stigma, a petal, etc.) was repeated 4 times and the fruition rate ws investigated and the results are shown in Table 2.

The next data set concerns Hongro apple flowers. Description: Side-effect of the agents toward Hongro apple flowers. It counts as in vivo. On the set-up: key: 0: no side-effect is observed, and it is same as no treatment of the agents; 1: the side-effect are observed in flowers, but they recover to normal fruition in a week; 2: a fall-out of flowers and 10% decrease in fruition rate; 3: about 40% loss; 4: 60% loss; 5: a severe loss in fruition. As to the method: To investigate the side-effect of the agent, various concentrations of the agents were treated to the flowers of Hongro apple.

The next data set deals with 20-Century pear. Description: Breakdown of the self-incompatibility in 20-century pear (fertilization rate, field). It counts as in vivo. Conditions: 600 μM, sprayed 5 and 2 days before full bloom, 14 days after the treatment. The protocol:
In a field test, 20-Century pear (the Rosaceae) which has self-incompatibility system was isolated single-genetically by covering up selected branches or whole plants with a fine-meshed net to exclude any pollinating insects. The aqueous of 600 μM solution of an agent of the present invention was treated enough to get-wet flowers with a micro-spray at 9:00-11:00 AM. The agent solution was micro-sprayed 2 times; first at 5 days before full bloom and second at 2 days before full bloom. The reference was artificial cross-pollination at full bloom. The fertilization rate was investigated 14 days after the treatment and compared with no treatment and artificial cross-pollination.

A further data set has as its system Hongro apple. Description: Breakdown of the self-incompatibility in Hongro apple (self-pollination rate, field). It counts as in vivo. Conditions: 25 days after the treatment. The protocol:
In the field application experiment, Hongro apple (the Rosaceae) which has a very low self-pollination rate (<5%) was isolated single-genetically by covering up whole plants with a fine-meshed net to exclude any pollinating insects. The agent of the present invention was treated enough to get-wet flowers at various concentrations with a micro-spray at 9:00-11:00 AM. The target of the agent was the first-blooming primary apple flower. The self-pollination rate was investigated 25 days after the treatment and compared with no treatment and artificial cross-pollination.

Setting [2] is: agent 0.1 mM, treated 1 day after full blooming.
Setting [3] is: agent 0.1 mM, treated 1 day before full blooming.
Where [4] appears, read: agent 0.1 mM, treated 2 days after full blooming.
The mark [5] stands for this setting: agent 0.1 mM, treated 2 days before full blooming.
[6] abbreviates: agent 0.1 mM, treated 3 days before full blooming.
Setting [7] is: agent 0.1 mM, treated 4 days before full blooming.
Setting [8] is: agent 0.1 mM, treated 5 days before full blooming.
The mark [9] stands for this setting: agent 0.1 mM, treated 6 days before full blooming.
[10] abbreviates: agent 0.1 mM, treated 7 days before full blooming.
The mark [11] stands for this setting: agent 0.1 mM, treated at full blooming (0 day).
The mark [12] stands for this setting: agent 1.0 mM, treated 1 day after full blooming.
[13] abbreviates: agent 1.0 mM, treated 1 day before full blooming.
[14] abbreviates: agent 1.0 mM, treated 2 days after full blooming.
Where [15] appears, read: agent 1.0 mM, treated 2 days before full blooming.
Setting [16] is: agent 1.0 mM, treated 3 days before full blooming.
[17] abbreviates: agent 1.0 mM, treated 4 days before full blooming.
Where [18] appears, read: agent 1.0 mM, treated 5 days before full blooming.
The mark [19] stands for this setting: agent 1.0 mM, treated 6 days before full blooming.
The mark [20] stands for this setting: agent 1.0 mM, treated 7 days before full blooming.
The mark [21] stands for this setting: agent 1.0 mM, treated at full blooming (0 day).

In the case of `COCCOCCOCC(=O)[O-].COCCOCCOCC(=O)[O-].[Cu+2]` [Cu(II) 2-(2-methoxyethoxy)ethoxyacetete, Cu(II) 2-(2-methoxyethoxy) ethoxyacetete], in data set [1], the “OD (2.0 mM)” value amounted to 0.63. Besides, the fruition rate is recorded as 0% with Lycopersicon peruvianum (setting [2]); greater than 60% in the data set with Lycopersicon peruvianum (setting [3]); 0% in the data set with Lycopersicon peruvianum (setting [4]); greater than 50% in the data set with Lycopersicon peruvianum (setting [5]); greater than 10% in the data set with Lycopersicon peruvianum (setting [6]); less than 10% in the data set on Lycopersicon peruvianum (setting [7]). Further, the fruition rate in the data set with Lycopersicon peruvianum (setting [8]) is 0%; with Lycopersicon peruvianum (setting [9]), 0%; in the data set with Lycopersicon peruvianum (setting [10]) it was 0%; in the data set on Lycopersicon peruvianum (setting [11]), greater than 50%. For the same compound, the side-effect index with Hongro apple flowers (1.0 mM) stood at 0; with Hongro apple flowers (5.0 mM), 0; in the data set on Hongro apple flowers (20.0 mM), 1. The same compound registered a fertilization rate in the data set on 20-Century pear of 53%.

On to `COCCOCC(=O)[O-].COCCOCC(=O)[O-].[Cu+2]` [Cu(II) 2-methoxyethoxyacetate], for which, in data set [1], the “OD (2.0 mM)” value is 0.65. For the same compound, the fruition rate with Lycopersicon peruvianum (setting [2]) is listed as 0%; with Lycopersicon peruvianum (setting [3]) it was greater than 50%; in the data set with Lycopersicon peruvianum (setting [4]), 0%; in the data set with Lycopersicon peruvianum (setting [5]) it was greater than 40%; in the data set with Lycopersicon peruvianum (setting [6]) it was greater than 10%; with Lycopersicon peruvianum (setting [7]) it was less than 10%. Besides, the fruition rate in the data set on Lycopersicon peruvianum (setting [8]) is 0%; with Lycopersicon peruvianum (setting [9]), 0%; with Lycopersicon peruvianum (setting [10]), 0%; with Lycopersicon peruvianum (setting [11]), greater than 40%. For the same compound, the side-effect index came out at 0 in the data set on Hongro apple flowers (1.0 mM), 0 in the data set with Hongro apple flowers (5.0 mM) and 2 with Hongro apple flowers (20.0 mM). Further, the fertilization rate in the data set on 20-Century pear was determined as 58%.

For the compound `O=C([O-])[C@H](O)[C@@H](O)[C@H](O)[C@H](O)CO.O=C([O-])[C@H](O)[C@@H](O)[C@H](O)[C@H](O)CO.[Cu+2]` [Cu(II) Gluconate], in data set [1], the “OD (2.0 mM)” value turned out to be 0.70. Further, in the data set on 20-Century pear, the fertilization rate is recorded as 51%.

With `O=S(=O)([O-])[O-].[Cu+2]` [CuSO4, reference compound], the “OD (2.0 mM)” value in data set [1] is 0.70. Also, the fruition rate is recorded as 0% in the data set with Lycopersicon peruvianum (setting [12]); 0% with Lycopersicon peruvianum (setting [13]); 0% in the data set with Lycopersicon peruvianum (setting [14]); 0% in the data set with Lycopersicon peruvianum (setting [15]); less than 5% in the data set with Lycopersicon peruvianum (setting [16]); less than 5% in the data set on Lycopersicon peruvianum (setting [17]). In addition, the fruition rate is on record as greater than 10% with Lycopersicon peruvianum (setting [18]), greater than 10% with Lycopersicon peruvianum (setting [19]), greater than 10% in the data set on Lycopersicon peruvianum (setting [20]) and 0% in the data set on Lycopersicon peruvianum (setting [21]). For the same compound, the self-pollination rate is 0% in the data set on Hongro apple (concentration 0.01 mM); 0% in the data set with Hongro apple (concentration 0.03 mM); 0% in the data set with Hongro apple (concentration 0.10 mM); 0% with Hongro apple (concentration 0.30 mM); less than 10% with Hongro apple (concentration 1.0 mM). Besides, the results for the side-effect index in the data set with Hongro apple flowers (1.0 mM), in the data set on Hongro apple flowers (5.0 mM) and with Hongro apple flowers (20.0 mM) were 3, 5 and 5, respectively.

For the compound `COCCOCCOCC(=O)[O-].COCCOCCOCC(=O)[O-].[Zn+2]` [Zn(II) 2-(2-methoxyethoxy)ethoxyacetete, Zn(II) 2-(2-methoxyethoxy) ethoxyacetete], the “OD (2.0 mM)” value in data set [1] was determined as 0.62. Further, the fruition rate in the data set on Lycopersicon peruvianum (setting [2]) is listed as 0%; with Lycopersicon peruvianum (setting [3]), greater than 60%; with Lycopersicon peruvianum (setting [4]), 0%; in the data set on Lycopersicon peruvianum (setting [5]), greater than 50%; with Lycopersicon peruvianum (setting [6]), greater than 10%; in the data set on Lycopersicon peruvianum (setting [7]) it was less than 10%. Besides, the fruition rate in the data set with Lycopersicon peruvianum (setting [8]) is recorded as 0%; in the data set with Lycopersicon peruvianum (setting [9]) it was 0%; in the data set with Lycopersicon peruvianum (setting [10]), 0%; with Lycopersicon peruvianum (setting [11]), greater than 50%. For the same compound, the side-effect index in the data set on Hongro apple flowers (1.0 mM) came to 0; in the data set on Hongro apple flowers (5.0 mM) it was 0; in the data set on Hongro apple flowers (20.0 mM), 1. This compound also had a fertilization rate in the data set with 20-Century pear of 51%.

As to `COCCOCC(=O)[O-].COCCOCC(=O)[O-].[Zn+2]` [Zn(II) 2-methoxyethoxyacetate], the “OD (2.0 mM)” value in data set [1] stood at 0.64. Also, the fruition rate in the data set with Lycopersicon peruvianum (setting [2]) is 0%; in the data set on Lycopersicon peruvianum (setting [3]) it was greater than 60%; with Lycopersicon peruvianum (setting [4]), 0%; with Lycopersicon peruvianum (setting [5]) it was greater than 50%; in the data set with Lycopersicon peruvianum (setting [6]), greater than 10%; in the data set on Lycopersicon peruvianum (setting [7]), less than 10%. Further, the fruition rate in the data set on Lycopersicon peruvianum (setting [8]) is given as 0%; in the data set with Lycopersicon peruvianum (setting [9]) it was 0%; with Lycopersicon peruvianum (setting [10]) it was 0%; in the data set on Lycopersicon peruvianum (setting [11]) it was greater than 40%. For the same compound, the self-pollination rate is greater than 10% with Hongro apple (concentration 0.01 mM); greater than 40% in the data set with Hongro apple (concentration 0.03 mM); greater than 60% in the data set on Hongro apple (concentration 0.10 mM); greater than 60% in the data set on Hongro apple (concentration 0.30 mM); greater than 60% in the data set with Hongro apple (concentration 1.0 mM). For the same compound, the side-effect index with Hongro apple flowers (1.0 mM) stood at 0; in the data set with Hongro apple flowers (5.0 mM) it was 0; in the data set with Hongro apple flowers (20.0 mM) it was 1. Further, the fertilization rate with 20-Century pear came to 53%.

For `O=C([O-])[C@H](O)[C@@H](O)[C@H](O)[C@H](O)CO.O=C([O-])[C@H](O)[C@@H](O)[C@H](O)[C@H](O)CO.[Zn+2]` [Zn(II) Gluconate], in data set [1], the “OD (2.0 mM)” value was determined as 0.73. In addition, the fertilization rate in the data set on 20-Century pear was 48%.

Regarding `O=S(=O)([O-])[O-].[Zn+2]` [ZnSO4, reference compound], in data set [1], the “OD (2.0 mM)” value turned out to be 0.72. Besides, the fruition rate in the data set with Lycopersicon peruvianum (setting [12]) is 0%; in the data set on Lycopersicon peruvianum (setting [13]), 0%; with Lycopersicon peruvianum (setting [14]), 0%; in the data set with Lycopersicon peruvianum (setting [15]), 0%; in the data set on Lycopersicon peruvianum (setting [16]), less than 5%; with Lycopersicon peruvianum (setting [17]), greater than 5%. The fruition rate is reported as greater than 5% in the data set on Lycopersicon peruvianum (setting [18]), greater than 10% in the data set with Lycopersicon peruvianum (setting [19]), greater than 10% in the data set with Lycopersicon peruvianum (setting [20]) and 0% in the data set with Lycopersicon peruvianum (setting [21]). Moreover, the self-pollination rate was 0% with Hongro apple (concentration 0.01 mM); 0% in the data set with Hongro apple (concentration 0.03 mM); 0% in the data set with Hongro apple (concentration 0.10 mM); 0% in the data set with Hongro apple (concentration 0.30 mM); less than 10% in the data set with Hongro apple (concentration 1.0 mM). Moreover, the values for the side-effect index in the data set on Hongro apple flowers (1.0 mM), with Hongro apple flowers (5.0 mM) and in the data set on Hongro apple flowers (20.0 mM) were 2, 5 and 5, respectively.

Values taken from patent publication US20050032646A1, “Agents for the regulation of gametophytic self-incompatibility and a control method for the breakdown of gametophytic self-incompatibility using the agents” (priority 2002, published 2005).
